US11345699B2, “Apoptosis signal-regulating kinase 1 inhibitors and methods of use thereof” (Enanta Pharmaceuticals, Inc., priority 2018, dated 2022)

biological target: ASK1 (Homo sapiens (Human), UniProt Q99683); experiment: HTRF KinEASE Assay (TR-FRET), inhibition of ASK1; format: biochemical; conditions: ASK1 kinase, 100 μM ATP, 1 μM STK3 peptide substrate, compound 0 to 10 μM
Experimental: Assay HTRF® KinEASE™ Assay
ASK1 was purchased from Thermofisher (Catalogue #PV4011), ATP was purchased from Sigma (Catalogue #A7699), HTRF® KinEASE™ Assay System was obtained from Cisbio (Bedford, Mass.). ½ Area plate was purchased from Perkin Elmer (Catalogue ##6005560). HTRF® KinEASE™-STK is a generic method for measuring serine/threonine kinase activities using a time-resolved fluorescence resonance energy transfer (TR-FRET) immunoassay. The IC50 value for each compound was determined in the presence of compound (various concentration from 0 to 10 μM) and a fixed amount of ATP and peptide substrates. The test compound, 1 μM STK3 peptide substrate, and […] of ASK1 kinase are incubated with kinase reaction buffer containing 50 mM HEPES Ph 7.5, 0.01% BRIJ-35, 10 mM MgCl2, and 1 mM EGTA for 30 minutes. 100 μM ATP is added to start kinase reaction and incubated for 3 hours. The STK3-antibody labeled with Eu^3+-Cryptate and 125 nM streptavidin-XL665 are mixed in a single addition with stop reagents provided by the Cisbio kit used to stop the kinase reaction. Fluorescence is detected using an Envision Multilabeled 2014 reader from PerkinElmer. The Fluorescence is measured at 615 nm (Cryptate) and 665 nm (XL665) and a ratio of 665 nm/615 nm is calculated for each well. The resulting TR-FRET is proportional to the phosphorylation level. Staurosporine was used as the positive control. IC50 was determined by Xlfit 5.3.
By using above method, the inhibition of ASK1 was evaluated for the compounds of Formula (I). Example numbers correspond to those in Table 5.

ASK1, sequence (Q99683 whole entry): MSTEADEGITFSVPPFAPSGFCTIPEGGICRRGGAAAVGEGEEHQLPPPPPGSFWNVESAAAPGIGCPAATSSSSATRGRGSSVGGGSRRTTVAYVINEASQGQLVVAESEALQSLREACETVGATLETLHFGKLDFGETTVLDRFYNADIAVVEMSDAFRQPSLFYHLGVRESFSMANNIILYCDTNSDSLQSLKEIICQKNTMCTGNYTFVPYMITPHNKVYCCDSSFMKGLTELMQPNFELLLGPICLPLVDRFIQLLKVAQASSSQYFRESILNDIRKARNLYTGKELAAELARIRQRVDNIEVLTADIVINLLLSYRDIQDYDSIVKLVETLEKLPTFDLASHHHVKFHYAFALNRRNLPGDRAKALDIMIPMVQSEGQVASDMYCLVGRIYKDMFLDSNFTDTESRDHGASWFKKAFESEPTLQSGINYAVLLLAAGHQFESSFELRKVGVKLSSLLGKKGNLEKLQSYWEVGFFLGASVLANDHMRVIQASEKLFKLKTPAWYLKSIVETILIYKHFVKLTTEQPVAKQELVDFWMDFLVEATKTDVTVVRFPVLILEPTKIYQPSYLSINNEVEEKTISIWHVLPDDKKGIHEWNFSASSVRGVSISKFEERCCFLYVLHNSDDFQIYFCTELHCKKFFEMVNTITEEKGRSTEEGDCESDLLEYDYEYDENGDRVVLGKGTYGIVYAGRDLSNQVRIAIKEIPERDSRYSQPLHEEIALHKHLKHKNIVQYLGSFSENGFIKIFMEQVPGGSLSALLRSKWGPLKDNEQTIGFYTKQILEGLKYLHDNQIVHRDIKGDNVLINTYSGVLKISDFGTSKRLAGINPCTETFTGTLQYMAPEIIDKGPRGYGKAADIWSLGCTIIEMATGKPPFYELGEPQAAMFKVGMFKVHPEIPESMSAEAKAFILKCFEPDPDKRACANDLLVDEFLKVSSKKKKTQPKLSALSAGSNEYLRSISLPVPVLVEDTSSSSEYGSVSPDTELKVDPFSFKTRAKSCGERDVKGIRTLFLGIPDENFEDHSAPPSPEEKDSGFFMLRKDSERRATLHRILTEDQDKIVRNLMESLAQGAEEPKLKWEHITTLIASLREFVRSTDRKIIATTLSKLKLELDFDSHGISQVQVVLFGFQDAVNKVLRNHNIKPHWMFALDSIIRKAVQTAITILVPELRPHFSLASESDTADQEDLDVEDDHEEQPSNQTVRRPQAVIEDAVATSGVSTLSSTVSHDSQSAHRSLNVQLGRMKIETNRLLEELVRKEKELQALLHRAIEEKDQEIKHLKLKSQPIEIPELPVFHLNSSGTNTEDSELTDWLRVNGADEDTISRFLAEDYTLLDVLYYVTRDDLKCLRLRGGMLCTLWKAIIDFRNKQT

Structure (SMILES)	IC50 [nM]
COc1cc2c(cc1C(=O)Nc1cccc(-c3nnnn3[C@H](C)CO)n1)CN(c1cnc(F)cn1)CC2 [Example 154, (R)-2-(5-fluoropyrazine-2-yl)-N-(6-(1-(1-hydroxypropan-2-yl)-1H-tetrazol-5-yl)pyridin-2-yl)-6-methoxy-1,2,3,4-tetrahydroisoquinoline-7-carboxamide]	1.25 to 10
C[C@H](CO)n1nnnc1-c1cccc(NC(=O)c2cc3c(cc2F)CCN(C(=O)N2CCC2)C3)n1 [Example 135]	1.25 to 10
COc1cc2c(cc1C(=O)Nc1cccc(-c3nnnn3[C@H](C)CO)n1)CN(c1cccnc1)CC2 [Example 150, (R)—N-(6-(1-(1-hydroxypropan-2-yl)-1H-tetrazol-5-yl)pyridin-2-yl)-6-methoxy-2-(pyridin-3-yl)-1,2,3,4-tetrahydroisoquinoline-7-carboxamide]	< 1.25
CCN1CCc2cc(F)c(C(=O)Nc3cccc(-c4nnnn4[C@H](C)CO)n3)cc2C1 [Example 138]	100 to 1000
C[C@H](CO)n1nnnc1-c1cccc(NC(=O)c2cc3c(cc2F)CCN(C(=O)NC2CC2)C3)n1 [Example 134]	1.25 to 10
C[C@H](CO)n1nnnc1-c1cccc(NC(=O)c2cc3c(cc2F)CCN(Cc2ccc(F)cc2)C3)n1 [Example 121]	10 to 100
C[C@H](CO)n1nnnc1-c1cccc(NC(=O)c2cc3c(cc2F)CCN(S(=O)(=O)Nc2ccc(F)cc2)C3)n1 [Example 136]	10 to 100
C[C@H](CO)n1nnnc1-c1cccc(NC(=O)c2cc3c(cn2)CCN(C(=O)c2cn(C4CC4)cn2)C3)n1 [Example 106]	1.25 to 10
CCNS(=O)(=O)N1CCc2cc(F)c(C(=O)Nc3cccc(-c4nnnn4[C@H](C)CO)n3)cc2C1 [Example 118]	1.25 to 10
C[C@H](CO)n1nnnc1-c1cccc(NC(=O)c2cc3c(cc2F)CCN(S(=O)(=O)c2ccc(F)cc2)C3)n1 [Example 137]	10 to 100
C[C@H](CO)n1nnnc1-c1cccc(NC(=O)c2cc3c(cn2)CCN(C(=O)N2CCOCC2)C3)n1 [Example 139]	1.25 to 10
C[C@H](CO)n1nnnc1-c1cccc(NC(=O)c2cc3c(cc2F)CCN(c2ncccn2)C3)n1 [Example 123]	1.25 to 10
C[C@H](CO)n1cnnc1-c1cccc(NC(=O)c2cc3c(cn2)CCN(S(=O)(=O)C2CC2)C3)n1 [Example 38, (R)-6-(cyclopropylsulfonyl)-N-(6-(4-(1-hydroxypropan-2-yl)-4H-1,2,4-triazol-3-yl)pyridin-2-yl)-5,6,7,8-tetrahydro-2,6-naphthyridine-3-carboxamide]	10 to 100
C[C@H](CO)n1nnnc1-c1cccc(NC(=O)c2cc3c(cc2F)CCN(C(=O)N2CCCCC2)C3)n1 [Example 116]	1.25 to 10
C[C@H](CO)n1nnnc1-c1cccc(NC(=O)c2cc3c(cc2F)CCN(C2CC2)C3)n1 [Example 120]	10 to 100
C[C@H](CO)n1nnnc1-c1cccc(NC(=O)c2cc3c(cc2F)CCN(S(=O)(=O)C2CC2)C3)n1 [Example 119]	10 to 100
C[C@H](CO)n1nnnc1-c1cccc(NC(=O)c2cc3c(cn2)CCN(C(=O)C(C)(C)O)C3)n1 [Example 140]	1.25 to 10
C[C@H](CO)n1nnnc1-c1cccc(NC(=O)c2cc3c(cn2)CCN(C(=O)c2cnn(C4CC4)c2)C3)n1 [Example 100]	1.25 to 10

The remaining lines, values ahead:

IC50 [nM]	Structure (SMILES)
1.25 to 10	CCOC(=O)N1CCc2cc(F)c(C(=O)Nc3cccc(-c4nnnn4[C@H](C)CO)n3)cc2C1 [Example 109]
1.25 to 10	CCNC(=O)N1CCc2cc(F)c(C(=O)Nc3cccc(-c4nnnn4[C@H](C)CO)n3)cc2C1 [Example 111]
< 1.25	COc1cc2c(cc1C(=O)Nc1cccc(-c3nncn3C(C)C)n1)CN(C(=O)CN1CCOC1=O)CC2 [Example 148]
10 to 100	CC(C)CN1CCc2cnc(C(=O)Nc3cccc(-c4nncn4C(C)C)n3)cc2C1 [Example 3, 6-isobutyl-N-(6-(4-isopropyl-4H-1,2,4-triazol-3-yl)pyridin-2-yl)-5,6,7,8-tetrahydro-2,6-naphthyridine-3-carboxamide]
< 1.25	COc1cc2c(cc1C(=O)Nc1cccc(-c3nncn3C(C)C)n1)CN(C(=O)[C@@H](O)CC(C)C)CC2 [Example 128]
< 1.25	COCCC(=O)N1CCc2cc(OC)c(C(=O)Nc3cccc(-c4nncn4C(C)C)n3)cc2C1 [Example 125]
1.25 to 10	CC(C)n1cnnc1-c1cccc(NC(=O)c2cc3c(cc2F)CCN(C(=O)OC(C)(C)C)C3)n1 [Example 10, tert-butyl 6-fluoro-7-((6-(4-isopropyl-4H-1,2,4-triazol-3-yl)pyridin-2-yl)carbamoyl)-3,4-dihydroisoquinoline-2(1H)-carboxylate]
10 to 100	COc1cc2c(cc1C(=O)Nc1cccc(-c3nncn3C(C)C)n1)CN(C(=O)OC(C)(C)C)CC2 [Example 5, tert-butyl 7-((6-(4-isopropyl-4H-1,2,4-triazol-3-yl)pyridin-2-yl)carbamoyl)-6-methoxy-3,4-dihydroisoquinoline-2(1H)-carboxylate]
10 to 100	COCCOC(=O)N1CCc2cc(F)c(C(=O)Nc3cccc(-c4nnnn4[C@H](C)CO)n3)cc2C1 [Example 110]
< 1.25	COc1cc2c(cc1C(=O)Nc1cccc(-c3nncn3C(C)C)n1)CN(C(=O)C[C@H](C)O)CC2 [Example 127]
< 1.25	COc1cc2c(cc1C(=O)Nc1cccc(-c3nnnn3[C@H](C)CO)n1)CN(C(=O)c1cnn(C3CC3)c1)CC2 [Example 97]
< 1.25	COc1cc2c(cc1C(=O)Nc1cccc(-c3nnnn3[C@H](C)CO)n1)CN(CC(=O)N1CCCC1)CC2 [Example 132]
< 1.25	COc1cc2c(cc1C(=O)Nc1cccc(-c3nnnn3[C@H](C)CO)n1)CN(C(=O)N1CCOCC1)CC2 [Example 131]
< 1.25	COc1cc2c(cc1C(=O)Nc1cccc(-c3nnnn3[C@H](C)CO)n1)CN(C(=O)N1CC[C@@H](O)C1)CC2 [Example 144, N-(6-(1-((R)-1-hydroxypropan-2-yl)-1H-tetrazol-5-yl)pyridin-2-yl)-2-((R)-3-hydroxypyrrolidine-1-carbonyl)-6-methoxy-1,2,3,4-tetrahydroisoquinoline-7-carboxamide]
< 1.25	COc1cc2c(cc1C(=O)Nc1cccc(-c3nnnn3[C@H](C)CO)n1)CN(C(=O)c1cnccn1)CC2 [Example 112]
< 1.25	CONC(=O)N1CCc2cc(OC)c(C(=O)Nc3cccc(-c4nnnn4[C@H](C)CO)n3)cc2C1 [Example 147]
< 1.25	COc1cc2c(cc1C(=O)Nc1cccc(-c3nnnn3[C@H](C)CO)n1)CN(C(=O)OCC(C)(C)O)CC2 [Example 130, 2-hydroxy-2-methylpropyl (R)-7-((6-(1-(1-hydroxypropan-2-yl)-1H-tetrazol-5-yl)pyridin-2-yl)carbamoyl)-6-methoxy-3,4-dihydroisoquinoline-2(1H)-carboxylate]
< 1.25	COc1cc2c(cc1C(=O)Nc1cccc(-c3nnnn3[C@H](C)CO)n1)CN(C(=O)OC[C@@H](O)C(F)(F)F)CC2 [Example 141]
